Data on nine compounds can be found in ChEMBL document CHEMBL1201862, “PubChem BioAssay data set” (2004).

Test [1] deals with G-protein coupled receptor 55 (Homo sapiens, UniProt Q9Y2T6). The test can be described thus: selective activators of receptor GPR55 – imaging, U2OS cells, beta-arrestin-GFP redistribution, primary screen (AID 1961). Type of test: functional.
Test [2] has as its target Coagulation factor XII (Homo sapiens, UniProt P00748). The experiment in a line: activated coagulation factor XII inhibitor potency, concentration-effect curve, cell-free (AID 716). Type of test: functional.
For test [3], the system named is Vero. The test can be described thus: Vero 76 cell viability after compound exposure – Vero 76 cells, synthesized analogs, cytotoxicity control for West Nile virus antiviral project, SAR follow-up (AID 2414). The test is classed as functional. The note with it: Chlorocebus sabaeus.
Test [4] has as its system Vero. The test can be described thus: Vero cell viability after compound exposure – synthesized analogs, set II, cytotoxicity control for West Nile virus antiviral project, SAR follow-up (AID 2402). The following applies: Chlorocebus sabaeus. The test is classed as functional.
The test system of test [5] is Vero. The experiment in a line: host cell viability loss, Vero E6 – synthesized analogs, cytotoxicity control for West Nile virus antiviral project, SAR follow-up (AID 2244). Type of test: functional. The following applies: Chlorocebus sabaeus.
Test [6] in a line: A Cell Based Assay for the Identification of Probe candidate Compounds with Anti- Venezuelan Equine Encephalitis virus. [Related pubchem assays: 2409, 2419, 1621, 2238, 2405, 2024, 2065, 2402, 2414, 1635, 1650, 2244 ]. The test is classed as functional.
The subject of test [7] is Vero. The test can be described thus: antiviral protection of cells from WNV – synthesized analogs, SAR follow-up (AID 2238). The test is classed as functional, cell-based. The following applies: Chlorocebus sabaeus.
The subject of test [8] is Vero. The experiment in a line: antiviral activity against WNV, CPE read-out – cell-based (AID 2419). Type of test: functional. The note with it: Chlorocebus sabaeus.
Test [9] in a line: Trypanosoma cruzi growth suppression in host cells – NIH3T3 host cells, beta-gal luminescence, confirmation (AID 2044).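 Further: intracellular parasites grown in NIH/3T3 mouse fibroblasts as host cells; luminescent beta-galactosidase reporter signal from transgenic T. cruzi replicating inside host cells; inhibitors lower the luminescence signal.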 The test is classed as functional, cell-based.
The nature of test [10]: NIH3T3 cell viability loss – ATP luminescence, mouse fibroblasts, counter-screen, dose response (AID 2010).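 Further: cells exposed to compound for about 90 hours before reading.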 The test is classed as functional, cell-based. A general note: Counterscreens check selectivity or assay interference.
The target in test [11] is T1, Dual specificity protein phosphatase 3 (Homo sapiens, UniProt P51452). The experiment in a line: SAR VHR1 absorbance Assay for In Vitro dose response studies. [Related pubchem assays (depositor defined):AID1654, AID1661, AID1878, AID1992, AID2004].
The target in test [12] is T1, Dual specificity protein phosphatase 3. The experiment in a line: SAR VHR1 Fluorescent Assay for In Vitro dose response studies. [Related pubchem assays (depositor defined):AID1654, AID1661, AID1878, AID1992, AID2004, AID2070, AID2085]. Type of test: functional.
For test [13], the target named is T2, Tyrosine-protein phosphatase non-receptor type 7 (Homo sapiens, UniProt P35236).
T2 sequence (P35236 whole entry): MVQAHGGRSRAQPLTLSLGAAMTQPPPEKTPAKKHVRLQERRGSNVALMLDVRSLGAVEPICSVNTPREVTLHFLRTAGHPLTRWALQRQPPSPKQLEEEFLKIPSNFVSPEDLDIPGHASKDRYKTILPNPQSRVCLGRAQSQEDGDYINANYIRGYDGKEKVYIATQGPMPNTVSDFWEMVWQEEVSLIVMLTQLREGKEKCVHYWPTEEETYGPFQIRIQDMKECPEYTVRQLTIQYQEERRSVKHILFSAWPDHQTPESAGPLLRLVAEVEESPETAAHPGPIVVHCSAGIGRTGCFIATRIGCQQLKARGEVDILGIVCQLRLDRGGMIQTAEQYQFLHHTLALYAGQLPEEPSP
The test can be described thus: redox-active compounds inhibiting HePTP phosphatase – biochemical, fluorescence, mechanism study (AID 2068). The test is classed as functional.

Test [14] has as its target T3, Dual specificity protein phosphatase 6 (Rattus norvegicus, UniProt Q64346).
T3 sequence (Q64346 whole entry): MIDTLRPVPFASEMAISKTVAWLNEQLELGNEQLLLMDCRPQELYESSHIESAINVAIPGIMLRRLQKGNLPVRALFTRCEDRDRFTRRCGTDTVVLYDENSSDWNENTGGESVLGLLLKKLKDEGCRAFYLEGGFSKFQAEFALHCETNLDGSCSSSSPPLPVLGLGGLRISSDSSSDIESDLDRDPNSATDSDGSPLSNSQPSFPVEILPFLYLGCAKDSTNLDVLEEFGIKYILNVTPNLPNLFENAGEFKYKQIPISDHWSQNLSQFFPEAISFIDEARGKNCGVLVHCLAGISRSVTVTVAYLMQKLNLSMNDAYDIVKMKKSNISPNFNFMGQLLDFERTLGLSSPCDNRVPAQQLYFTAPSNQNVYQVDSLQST
The test can be described thus: SAR analysis of inhibitors of MKP-3 - Set 2. [Related pubchem assays (depositor defined):AID1055, AID1661, AID425, AID553, AID566]. Type of test: functional.

Test [15] deals with T2, Tyrosine-protein phosphatase non-receptor type 7. The test can be described thus: inhibition of hematopoietic tyrosine phosphatase HePTP – biochemical, set 2, SAR follow-up (AID 449736). The test is classed as functional.
For test [16] the target is unchanged. The test can be described thus: SAR analysis of chemical inhibitors of HePTP using a Fluorescent assay - Set 2. [Related pubchem assays (depositor defined):AID1059, AID1077, AID1661, AID2085, AID521]. Type of test: functional.
Test [17] deals with T1, Dual specificity protein phosphatase 3. The test can be described thus: SAR VHR1 Fluorescent Assay for In Vitro dose response studies Set 2. [Related pubchem assays (depositor defined):AID1654, AID1661, AID1878]. Type of test: functional.
Test [18] addresses T3, Dual specificity protein phosphatase 6. The test is classed as functional.
The target in test [19] is Tumor necrosis factor (Homo sapiens, UniProt P01375). The experiment in a line: analog potency on TNFa NF-kB signaling – cell-based, revised, SAR follow-up (AID 2337). The test is classed as functional.
The target in test [20] is Nucleotide-binding oligomerization domain-containing protein 1 (Homo sapiens, UniProt Q9Y239). The test can be described thus: blockers of NOD1 pathway activity – revised, SAR follow-up (AID 2333). The test is classed as functional.
Test [21] concerns the target Nucleotide-binding oligomerization domain-containing protein 2 (Homo sapiens, UniProt Q9HC29). The experiment in a line: PubChem AID 2334. Type of test: functional.
Test [22] concerns HEK293. The experiment in a line: cells. The note with it: Homo sapiens.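 Further: cells exposed to compound for 14 hours overnight before viability readout.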
Test [23] concerns the target CAAX prenyl protease 2 (Saccharomyces cerevisiae S288c, UniProt Q03530). The test is classed as biochemical.
Test [24] deals with Tyrosine-protein phosphatase non-receptor type 12 (Homo sapiens, UniProt Q05209). The experiment in a line: SAR Selectivity Analysis of small molecule inhibitors of PEST using pCAP in a fluorescence assay. [Related pubchem assays (depositor defined):AID1779, AID1784, AID2135]. Type of test: functional.
The target of test [25] is T4, Tyrosine-protein phosphatase non-receptor type 22 (Homo sapiens, UniProt Q9Y2R2). The experiment in a line: SAR LYP1 Fluorescent Assay using OMFP substrate for In Vitro dose response studies - Set 3. [Related pubchem assays (depositor defined):AID1779, AID1784, AID2140, AID2686]. The test is classed as functional.
For test [26], the target named is T4, Tyrosine-protein phosphatase non-receptor type 22. The test can be described thus: inhibition of lymphoid tyrosine phosphatase LYP – biochemical, pCAP fluorogenic substrate, fluorescence, set 3, SAR follow-up (AID 449727). The test is classed as functional.
Test [27] is described as follows: NIH/3T3 cell viability loss – mouse embryonic fibroblasts, dry powder, set 2, cytotoxicity control, dose response (AID 493247). The test is classed as functional, cell-based. The following applies: Fibroblast.
The target in test [28] is Glyceraldehyde-3-phosphate dehydrogenase (Homo sapiens, UniProt P04406).
Test [29] has as its target Alkaline phosphatase, placental type (Homo sapiens, UniProt P05187). The experiment in a line: human placental alkaline phosphatase inhibition – biochemical, luminescence, confirmation (AID 1512). Type of test: functional.
Test [30] addresses T5, Alkaline phosphatase, tissue-nonspecific isozyme (Homo sapiens, UniProt P05186).
T5 sequence (P05186 whole entry): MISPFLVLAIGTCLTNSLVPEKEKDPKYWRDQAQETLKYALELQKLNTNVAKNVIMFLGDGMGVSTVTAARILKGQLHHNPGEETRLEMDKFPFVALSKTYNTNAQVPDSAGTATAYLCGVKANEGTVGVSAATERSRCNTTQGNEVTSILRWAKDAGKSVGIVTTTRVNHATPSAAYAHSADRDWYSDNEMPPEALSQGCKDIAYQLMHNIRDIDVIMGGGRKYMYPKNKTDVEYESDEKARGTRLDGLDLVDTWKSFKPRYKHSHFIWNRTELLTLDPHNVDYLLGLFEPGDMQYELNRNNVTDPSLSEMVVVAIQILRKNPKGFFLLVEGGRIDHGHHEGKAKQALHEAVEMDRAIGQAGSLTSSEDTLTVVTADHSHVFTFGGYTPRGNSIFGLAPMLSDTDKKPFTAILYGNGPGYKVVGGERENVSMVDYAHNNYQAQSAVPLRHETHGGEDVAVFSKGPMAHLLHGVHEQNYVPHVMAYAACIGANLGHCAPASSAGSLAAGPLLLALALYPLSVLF
The experiment in a line: potency against alkaline phosphatase TNAP – biochemical, luminescent, dose response, SAR follow-up (AID 1056).

Structures are written as SMILES. Calls of active or inactive are those of the source. For most assays here, no stated cut-off is given here; in the data, actives have a measured IC50 and inactives only a lower limit. Some results are limits rather than exact numbers.

T1 sequence (P51452 whole entry): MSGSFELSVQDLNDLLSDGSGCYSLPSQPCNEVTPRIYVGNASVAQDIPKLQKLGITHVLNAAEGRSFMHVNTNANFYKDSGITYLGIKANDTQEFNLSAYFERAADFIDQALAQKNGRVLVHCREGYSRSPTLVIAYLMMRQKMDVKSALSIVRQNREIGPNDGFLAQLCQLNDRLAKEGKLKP
T4 sequence (Q9Y2R2 whole entry): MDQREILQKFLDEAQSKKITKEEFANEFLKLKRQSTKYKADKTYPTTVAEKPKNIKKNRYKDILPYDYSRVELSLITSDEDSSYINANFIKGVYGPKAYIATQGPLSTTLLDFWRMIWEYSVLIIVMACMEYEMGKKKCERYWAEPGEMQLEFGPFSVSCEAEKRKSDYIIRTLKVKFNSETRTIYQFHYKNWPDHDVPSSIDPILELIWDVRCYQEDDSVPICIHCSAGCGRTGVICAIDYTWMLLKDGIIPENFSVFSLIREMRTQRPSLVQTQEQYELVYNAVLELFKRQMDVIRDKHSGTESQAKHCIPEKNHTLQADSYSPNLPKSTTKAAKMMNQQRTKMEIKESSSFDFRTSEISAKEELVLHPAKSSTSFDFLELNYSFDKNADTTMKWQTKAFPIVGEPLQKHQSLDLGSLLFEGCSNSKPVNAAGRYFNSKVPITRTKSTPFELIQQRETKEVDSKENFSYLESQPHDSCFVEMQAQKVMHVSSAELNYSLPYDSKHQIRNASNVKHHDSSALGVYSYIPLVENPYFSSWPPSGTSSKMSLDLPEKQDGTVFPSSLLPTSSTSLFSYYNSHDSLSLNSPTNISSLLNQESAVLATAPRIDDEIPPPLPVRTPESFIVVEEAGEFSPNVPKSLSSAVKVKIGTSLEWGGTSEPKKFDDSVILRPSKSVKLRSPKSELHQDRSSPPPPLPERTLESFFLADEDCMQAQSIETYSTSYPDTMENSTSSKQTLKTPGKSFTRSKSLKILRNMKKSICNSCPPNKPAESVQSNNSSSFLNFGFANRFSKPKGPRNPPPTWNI
Chain of Tumor necrosis factor (P01375 whole entry, the tested form may be a part): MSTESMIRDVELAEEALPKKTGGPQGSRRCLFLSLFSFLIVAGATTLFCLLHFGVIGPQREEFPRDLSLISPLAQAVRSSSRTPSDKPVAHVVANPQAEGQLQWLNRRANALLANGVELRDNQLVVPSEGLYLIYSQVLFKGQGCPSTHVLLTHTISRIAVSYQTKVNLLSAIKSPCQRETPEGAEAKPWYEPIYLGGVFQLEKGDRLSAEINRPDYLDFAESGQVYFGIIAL
Chain of Tyrosine-protein phosphatase non-receptor type 12 (Q05209 whole entry): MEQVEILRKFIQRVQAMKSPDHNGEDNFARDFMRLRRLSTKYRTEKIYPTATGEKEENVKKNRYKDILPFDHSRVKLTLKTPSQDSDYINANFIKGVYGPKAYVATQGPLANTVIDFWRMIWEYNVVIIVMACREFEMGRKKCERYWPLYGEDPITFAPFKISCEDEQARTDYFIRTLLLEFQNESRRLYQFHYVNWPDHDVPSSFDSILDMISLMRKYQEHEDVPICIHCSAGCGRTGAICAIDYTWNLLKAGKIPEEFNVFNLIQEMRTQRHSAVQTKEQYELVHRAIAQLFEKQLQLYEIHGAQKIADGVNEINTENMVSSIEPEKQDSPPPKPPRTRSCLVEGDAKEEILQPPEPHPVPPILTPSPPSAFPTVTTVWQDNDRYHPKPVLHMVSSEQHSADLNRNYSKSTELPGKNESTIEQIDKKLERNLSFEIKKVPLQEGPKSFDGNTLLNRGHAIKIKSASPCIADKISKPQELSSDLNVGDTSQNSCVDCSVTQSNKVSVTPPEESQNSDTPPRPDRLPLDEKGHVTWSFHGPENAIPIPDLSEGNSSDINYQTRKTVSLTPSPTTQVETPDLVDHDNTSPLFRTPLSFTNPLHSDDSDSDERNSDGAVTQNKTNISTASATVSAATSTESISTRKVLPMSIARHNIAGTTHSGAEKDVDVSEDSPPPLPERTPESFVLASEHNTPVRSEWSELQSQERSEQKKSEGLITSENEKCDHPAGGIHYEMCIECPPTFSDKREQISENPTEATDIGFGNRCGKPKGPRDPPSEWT
Chain of Glyceraldehyde-3-phosphate dehydrogenase (P04406 whole entry): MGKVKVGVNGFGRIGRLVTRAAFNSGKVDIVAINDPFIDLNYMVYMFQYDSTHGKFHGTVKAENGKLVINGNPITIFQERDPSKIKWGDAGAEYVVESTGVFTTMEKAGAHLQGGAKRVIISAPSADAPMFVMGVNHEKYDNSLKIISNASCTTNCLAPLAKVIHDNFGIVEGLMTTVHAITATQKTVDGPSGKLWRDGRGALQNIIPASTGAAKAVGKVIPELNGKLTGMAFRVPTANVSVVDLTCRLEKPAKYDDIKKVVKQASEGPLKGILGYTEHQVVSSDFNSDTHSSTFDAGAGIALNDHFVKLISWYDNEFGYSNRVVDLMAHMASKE
Chain of Coagulation factor XII (P00748 20-372 limits assumed): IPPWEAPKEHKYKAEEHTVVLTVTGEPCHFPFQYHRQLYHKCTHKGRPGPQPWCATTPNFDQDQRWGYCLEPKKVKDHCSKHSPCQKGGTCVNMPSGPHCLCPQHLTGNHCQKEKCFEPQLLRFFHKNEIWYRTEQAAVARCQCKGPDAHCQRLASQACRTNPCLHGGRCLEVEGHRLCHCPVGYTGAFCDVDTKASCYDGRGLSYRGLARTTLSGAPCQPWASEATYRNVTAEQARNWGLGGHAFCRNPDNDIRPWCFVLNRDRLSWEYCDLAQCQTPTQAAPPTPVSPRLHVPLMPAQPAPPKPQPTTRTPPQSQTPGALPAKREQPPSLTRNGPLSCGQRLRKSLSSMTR
Chain of Coagulation factor XII (P00748 373-615 limits assumed): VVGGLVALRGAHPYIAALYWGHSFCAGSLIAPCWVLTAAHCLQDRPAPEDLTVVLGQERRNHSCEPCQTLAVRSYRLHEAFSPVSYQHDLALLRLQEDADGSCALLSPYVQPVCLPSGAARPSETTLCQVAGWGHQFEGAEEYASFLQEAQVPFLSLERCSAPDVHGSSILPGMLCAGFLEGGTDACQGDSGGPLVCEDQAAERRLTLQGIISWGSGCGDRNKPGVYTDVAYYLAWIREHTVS
Chain of G-protein coupled receptor 55 (Q9Y2T6 whole entry): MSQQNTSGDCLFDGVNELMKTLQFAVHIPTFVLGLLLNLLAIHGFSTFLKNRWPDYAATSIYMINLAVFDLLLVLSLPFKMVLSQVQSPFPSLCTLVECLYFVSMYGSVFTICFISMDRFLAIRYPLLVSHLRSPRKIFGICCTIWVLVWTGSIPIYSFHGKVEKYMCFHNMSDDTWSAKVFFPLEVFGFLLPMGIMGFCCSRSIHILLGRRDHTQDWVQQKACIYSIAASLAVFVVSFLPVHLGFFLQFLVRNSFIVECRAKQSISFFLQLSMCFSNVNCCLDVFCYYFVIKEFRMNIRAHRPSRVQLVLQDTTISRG
Chain of Alkaline phosphatase, placental type (P05187 whole entry): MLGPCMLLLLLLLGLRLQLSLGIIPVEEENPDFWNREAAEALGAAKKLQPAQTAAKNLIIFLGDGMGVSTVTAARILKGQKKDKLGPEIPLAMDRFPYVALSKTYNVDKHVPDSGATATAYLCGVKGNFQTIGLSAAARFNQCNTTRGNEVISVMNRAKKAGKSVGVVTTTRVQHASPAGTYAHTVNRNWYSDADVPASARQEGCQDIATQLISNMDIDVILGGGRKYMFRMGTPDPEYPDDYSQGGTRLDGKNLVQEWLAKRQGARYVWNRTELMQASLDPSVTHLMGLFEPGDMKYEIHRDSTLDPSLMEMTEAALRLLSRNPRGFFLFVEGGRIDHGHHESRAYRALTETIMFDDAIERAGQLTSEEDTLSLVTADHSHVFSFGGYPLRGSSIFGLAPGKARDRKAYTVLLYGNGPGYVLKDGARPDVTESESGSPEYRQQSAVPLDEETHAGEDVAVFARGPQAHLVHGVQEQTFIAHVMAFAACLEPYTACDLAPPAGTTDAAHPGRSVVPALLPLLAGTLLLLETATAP
Chain of Nucleotide-binding oligomerization domain-containing protein 2 (Q9HC29 whole entry, the tested form may be a part): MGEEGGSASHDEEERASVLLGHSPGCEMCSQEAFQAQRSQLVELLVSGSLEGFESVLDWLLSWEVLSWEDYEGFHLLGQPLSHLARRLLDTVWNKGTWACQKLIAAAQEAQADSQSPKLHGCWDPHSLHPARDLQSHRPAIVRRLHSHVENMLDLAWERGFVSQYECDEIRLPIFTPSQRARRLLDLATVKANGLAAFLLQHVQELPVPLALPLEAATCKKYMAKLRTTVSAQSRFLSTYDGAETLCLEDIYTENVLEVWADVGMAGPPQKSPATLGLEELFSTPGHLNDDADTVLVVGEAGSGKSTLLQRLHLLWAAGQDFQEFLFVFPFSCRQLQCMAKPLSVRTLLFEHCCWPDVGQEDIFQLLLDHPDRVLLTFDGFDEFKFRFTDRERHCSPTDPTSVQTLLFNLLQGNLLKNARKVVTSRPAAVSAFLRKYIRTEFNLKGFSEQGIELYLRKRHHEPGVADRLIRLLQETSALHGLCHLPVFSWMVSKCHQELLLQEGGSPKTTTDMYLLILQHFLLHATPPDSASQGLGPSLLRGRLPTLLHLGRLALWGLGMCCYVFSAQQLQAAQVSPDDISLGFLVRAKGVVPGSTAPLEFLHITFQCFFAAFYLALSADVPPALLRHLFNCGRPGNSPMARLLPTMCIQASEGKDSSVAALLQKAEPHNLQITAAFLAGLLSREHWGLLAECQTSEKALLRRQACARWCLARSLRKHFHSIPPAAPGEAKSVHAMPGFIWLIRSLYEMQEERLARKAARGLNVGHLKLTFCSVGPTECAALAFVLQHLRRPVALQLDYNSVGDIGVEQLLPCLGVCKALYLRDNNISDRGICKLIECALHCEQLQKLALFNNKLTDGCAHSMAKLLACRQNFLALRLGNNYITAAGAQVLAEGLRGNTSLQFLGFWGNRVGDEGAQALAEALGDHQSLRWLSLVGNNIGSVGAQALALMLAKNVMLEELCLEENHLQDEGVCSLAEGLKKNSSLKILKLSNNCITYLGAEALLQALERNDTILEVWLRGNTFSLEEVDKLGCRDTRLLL

Broadly, the EC50 is the midpoint of the concentration-response curve. With `CC(C)C[C@@H](CSc1ccc(Br)cc1)N1CCN(CC(C)C)CCC1=O`, the EC50 in test [1] was 15.3 µM (inactive).

In general, IC50 refers to the midpoint of a concentration-inhibition curve. Consider `CN(CC(=O)Nc1cccnc1)S(=O)(=O)c1cc(Cl)ccc1Cl`, for which, in test [2], the IC50 is > 50 µM (inactive).

The term CC50 denotes the concentration that lowers cell viability or growth by half. `OC1c2cc(Br)ccc2N=C2CCCN21` (stereo unspecified): the CC50 in test [3] is 71.5 µM (active); in [4], 35.5 µM (active); in test [5], > 80 µM (active). Moreover, the IC50 in test [6] was 14.5 µM (active); in [7] it was 25.7 µM (active); in test [8], > 25 µM (active). Moreover, the EC50 in [9] was 3.78 µM (active); in test [10], > 60 µM (not active).

Turning to `NS(=O)(=O)c1ccc(NC(=S)NC2CC2)cc1`, the IC50 in test [11] was 12.5 µM (active); in [12] it was > 99 µM (inactive); in [13], 0.588 µM (active); in test [14] it was > 100 µM (inactive); in test [15], > 100 µM (inactive); in test [16], 27.9 µM (active). For the same compound, the IC50 in [17] was 5.38 µM (active); in test [18], > 99 µM (inactive).

As for `COc1ccc(-c2cc(C(=O)NC3CCCc4c3cnn4-c3ccccc3F)n(C)n2)cc1` (stereo unspecified), the IC50 in test [19] is 1.36 µM (active); in [20] it was 0.99 µM (active); in [21], 1.34 µM (active); in test [22], > 20 µM (inactive).

As a reminder, the AC50 is the concentration at which the activity in the assay is half-maximal. With `CCn1cc(/C=C(\NC(=O)c2ccccc2F)C(=O)N2CCCC2)c2ccccc21`, the concentration at half-maximal activity (AC50) in [23] is 3.91 µM (active).

`CCc1ccc(/N=C2/NC(=O)/C(=C/c3ccc(OCC(=O)O)c(Cl)c3)S2)cc1`: the IC50 was 7.69 µM (active) in test [24]; 21.7 µM (active) in [25]; 2.89 µM (active) in [13]; 2.71 µM (active) in test [15]; 11.2 µM (active) in [26]; 4.83 µM (active) in test [17]. For the same compound, the half-maximal inhibitory concentration (IC50) in test [18] was 65.7 µM (active).

For the compound `CCCCCC(=O)N/N=C/c1ccc([N+](=O)[O-])o1`, the values for the EC50 in test [9] and in test [10] were 0.183 µM (active) and > 60 µM (not active), respectively. The AC50 in [27] is 26.6 µM (active).

`O=C(O)c1cc(-c2ccccc2Cl)n[nH]1`: the results for the half-inhibitory concentration (IC50) in [28], in test [29] and in test [30] were > 100 µM (not active), > 100 µM (inactive) and 0.584 µM (active), respectively.
